Where no end group is shown, it is not given here. [ ]: non-standard residue; d: D form.
Columns and labels:
[1] = test system: human red blood cells (hRBC); assay: Hemolysis of human red blood cells; assay type: cell-based; conditions: for % hemolysis at 50 μM peptide / % hemolysis at 100 μM: 30 min at 37° C.; for hemolytic activity (dose response): up to maximum concentration tested (50 μM)
Procedure: (ix) Hemolysis of human red blood cells. The peptides were tested for their hemolytic activities against human red blood cells (hRBC). Fresh hRBC with EDTA were rinsed 3 times with PBS (35 mM phosphate buffer/0.15 M NaCl, pH 7.3) by centrifugation for 10 min at 800 g and resuspended in PBS. Peptides dissolved in PBS were then added to 50 μL of a solution of the stock hRBC in PBS to reach a final volume of 100 μL (final erythrocyte concentration, 5% v/v). The resulting suspension was incubated under agitation for 30 min at 37° C. The samples were then centrifuged at 800 g for 10 min. Release of hemoglobin was monitored by measuring the absorbance of the supernatant at 540 nm. Controls for zero hemolysis (blank) and 100% hemolysis consisted of hRBC suspended in PBS and Triton 1%, respectively.

[2] = phosphatidylglycerol/phosphatidylcholine (Beschiaschvili and Seelig, 1990); cited from earlier work
[3] = Membrane permeation, diffusion potential assay; conditions: zwitterionic vesicles
Procedure: (xi) Membrane permeation induced by the peptides. Membrane permeation was assessed utilizing the diffusion potential assay (Loew et al., 1983; Sims et al., 1974) as previously described (Shai et al., 1991). In a typical experiment, in a glass tube, 4 μl of a liposomes suspension (final phospholipids concentration of 33 μM), in a K^+ containing buffer (50 mM K2 SO4, 25 mM HEPES-SO4^-2, pH 6.8), was diluted in 1 ml of an isotonic K^+ free buffer (50 mM Na2 SO4, 25 mM HEPES-SO4^-2, pH 6.8), and the fluorescent, potential-sensitive dye diS-C2 -5 was then added. Valinomycin (1 μl of 10^-7 M) was added to the suspension in order to slowly create a negative diffusion potential inside the vesicles, which led to a quenching of the dye's fluorescence. Once the fluorescence had stabilized, which took 3-10 minutes, peptides were added. The subsequent dissipation of the diffusion potential, as reflected by an increase in fluorescence, was monitored on a Perkin Elmer LS-50B spectrofluorometer, with the excitation set at 620 nm, the emission at 670 nm, and the gain adjusted to 100%. The percentage of fluorescence recovery, Ft, was defined as:
where I0 =the initial fluorescence, If =the total fluorescence observed before the addition of valinomycin, and It =the fluorescence observed after adding the peptide at time t.

Escherichia coli D21 = assay: Antibacterial activity (MIC), growth inhibition in 96-well plates; assay type: cell-based; conditions: 100% inhibition of growth after 18-20 h at 37° C.
Bacillus megaterium Bm11 = assay: as above; assay type: cell-based; conditions: 100% inhibition of growth after 18-20 h at 37° C.
[4] = test system: Acinetobacter calcoaceticus Ac11; assay: as above; assay type: cell-based; conditions: 100% inhibition of growth after 18-20 h at 37° C.

CC[C@H](C)[C@H](NC(=O)CN)C(=O)NCC(=O)N[C@@H](C)C(=O)N[C@H](C(=O)N[C@@H](CC(C)C)C(=O)N[C@@H](CCCCN)C(=O)N[C@H](C(=O)N[C@@H](CC(C)C)C(=O)N[C@H](C(=O)N[C@H](C(=O)NCC(=O)N[C@@H](CC(C)C)C(=O)N1CCC[C@H]1C(=O)N[C@@H](C)C(=O)N[C@@H](CC(C)C)C(=O)N[C@H](C(=O)N[C@@H](CO)C(=O)N[C@@H](Cc1c[nH]c2ccccc12)C(=O)N[C@H](C(=O)N[C@@H](CCCCN)C(=O)N[C@@H](CCCNC(=N)N)C(=O)N[C@@H](CCCCN)C(=O)N[C@@H](CCCNC(=N)N)C(=O)N[C@@H](CCC(N)=O)C(=O)N[C@@H](CCC(N)=O)C(N)=O)[C@@H](C)CC)[C@@H](C)CC)[C@@H](C)O)[C@@H](C)O)C(C)C)C(C)C [Melittin, reference compound]
% hemolysis at 50 μM peptide [1]: 100% | hemolytic activity (dose response) [1]: the most hemolytic | surface partition coefficient reported for melittin [2]: 4.5±0.6×10^4 M^-1 | membrane permeating activity with PC vesicles [3]: highly active

CC[C@H](C)[C@H](NC(=O)[C@H](CCCCN)NC(=O)[C@H]1CCCN1C(=O)[C@@H](NC(=O)[C@H](CC(C)C)NC(=O)[C@H](C)NC(=O)[C@H](Cc1ccccc1)NC(=O)[C@H](Cc1ccccc1)NC(=O)CN)[C@@H](C)CC)C(=O)N[C@H](C(=O)N[C@@H](CO)C(=O)N[C@@H](CO)C(=O)N1CCC[C@H]1C(=O)N[C@@H](CC(C)C)C(=O)N[C@@H](Cc1ccccc1)C(=O)N[C@@H](CCCCN)C(=O)N[C@H](C(=O)N[C@H](CC(C)C)C(=O)N[C@H](CC(C)C)C(=O)N[C@@H](CO)C(=O)N[C@@H](C)C(=O)N[C@H](C(=O)NCC(=O)N[C@@H](CO)C(=O)N[C@@H](C)C(=O)N[C@@H](CC(C)C)C(=O)N[C@@H](CO)C(=O)N[C@@H](CO)C(=O)N[C@@H](CO)C(=O)NCC(=O)NCC(=O)N[C@@H](CCC(N)=O)C(=O)N[C@@H](CCC(=O)NCCN)C(=O)NCCN)C(C)C)[C@@H](C)O)[C@@H](C)CC [Peptide 1]
hemolytic activity (dose response) [1]: practically devoid of hemolytic activity

CC[C@H](C)[C@H](NC(=O)[C@H](CCCCN)NC(=O)[C@@H]1CCCN1C(=O)[C@@H](NC(=O)[C@H](CC(C)C)NC(=O)[C@H](C)NC(=O)[C@H](Cc1ccccc1)NC(=O)[C@H](Cc1ccccc1)NC(=O)CN)[C@@H](C)CC)C(=O)N[C@H](C(=O)N[C@@H](CO)C(=O)N[C@@H](CO)C(=O)N1CCC[C@H]1C(=O)N[C@@H](CC(C)C)C(=O)N[C@@H](Cc1ccccc1)C(=O)N[C@@H](CCCCN)C(=O)N[C@H](C(=O)N[C@@H](CC(C)C)C(=O)N[C@@H](CC(C)C)C(=O)N[C@@H](CO)C(=O)N[C@@H](C)C(=O)N[C@H](C(=O)NCC(=O)N[C@@H](CO)C(=O)N[C@@H](C)C(=O)N[C@@H](CC(C)C)C(=O)N[C@@H](CO)C(=O)N[C@@H](CO)C(=O)N[C@@H](CO)C(=O)NCC(=O)NCC(=O)N[C@@H](CCC(N)=O)C(=O)N[C@@H](CCC(=O)NCCN)C(=O)NCCN)C(C)C)[C@@H](C)O)[C@@H](C)CC [Peptide 8, TApar]
hemolytic activity (dose response) [1]: the most hemolytic

CC[C@@H](C)[C@@H](NC(=O)[C@H](CC(C)C)NC(=O)[C@H](C)NC(=O)[C@@H]1CCCN1C(=O)[C@H](CC(C)C)NC(=O)CNC(=O)[C@@H](NC(=O)[C@@H](NC(=O)[C@H](CC(C)C)NC(=O)[C@H](NC(=O)[C@H](CCCCN)NC(=O)[C@H](CC(C)C)NC(=O)[C@H](NC(=O)[C@H](C)NC(=O)CNC(=O)[C@@H](NC(=O)CN)[C@@H](C)CC)C(C)C)C(C)C)[C@@H](C)O)[C@@H](C)O)C(=O)N[C@@H](CO)C(=O)N[C@@H](Cc1c[nH]c2ccccc12)C(=O)N[C@H](C(=O)N[C@H](CCCCN)C(=O)N[C@@H](CCCNC(=N)N)C(=O)N[C@@H](CCCCN)C(=O)N[C@@H](CCCNC(=N)N)C(=O)N[C@@H](CCC(N)=O)C(=O)N[C@@H](CCC(N)=O)C(=O)O)[C@@H](C)CC [Peptide 19]
hemolytic activity (dose response) [1]: practically devoid of hemolytic activity

CC(C)C[C@H](NC(=O)[C@H](CC(C)C)NC(=O)[C@@H](CC(C)C)NC(=O)[C@@H](CC(C)C)NC(=O)[C@H](CC(C)C)NC(=O)[C@@H](N)CCCCN)C(=O)N[C@@H](CCCCN)C(=O)N[C@H](CC(C)C)C(=O)N[C@@H](CC(C)C)C(=O)N[C@H](CC(C)C)C(=O)N[C@@H](CC(C)C)C(=O)N[C@@H](CCCCN)C(N)=O [Peptide 22]
hemolytic activity (in words) [1]: considerable hemolytic activity

CC(C)C[C@H](NC(=O)[C@H](CCCCN)NC(=O)[C@@H](CC(C)C)NC(=O)[C@@H](CC(C)C)NC(=O)[C@H](CC(C)C)NC(=O)[C@@H](N)CCCCN)C(=O)N[C@@H](CC(C)C)C(=O)N[C@H](CC(C)C)C(=O)N[C@@H](CCCCN)C(=O)N[C@H](CC(C)C)C(=O)N[C@@H](CC(C)C)C(=O)N[C@@H](CCCCN)C(N)=O [Peptide 23]
hemolytic activity (in words) [1]: devoid of hemolytic activity

CC(C)C[C@H](NC(=O)[C@H](CCCCN)NC(=O)[C@@H](CC(C)C)NC(=O)[C@@H](CC(C)C)NC(=O)[C@H](CC(C)C)NC(=O)[C@@H](N)CCCCN)C(=O)N[C@@H](CCCCN)C(=O)N[C@H](CC(C)C)C(=O)N[C@@H](CCCCN)C(=O)N[C@H](CC(C)C)C(=O)N[C@@H](CC(C)C)C(=O)N[C@@H](CCCCN)C(N)=O [Peptide 24]
hemolytic activity (in words) [1]: devoid of hemolytic activity

(Lys-Leu-Leu-Leu-Lys-Leu-Leu-Leu-Lys-Leu-Leu-Lys-Cys-NH2)5 Lys-Leu-Leu-Leu-Lys-Leu-Leu-Leu-Lys-Leu-Leu-Lys-NH2 [Peptide 92]
% hemolysis at 100 μM [1]: 0% | Minimal Inhibitory Concentration E. coli (D21) (Escherichia coli D21): 0.2 µM | Minimal Inhibitory Concentration B. megaterium (Bm11) (Bacillus megaterium Bm11): 0.05 µM

(Lys-Leu-Leu-Leu-Lys-Leu-Lys-Leu-Lys-Leu-Leu-Lys-Cys-NH2)5 Lys-Leu-Leu-Leu-Lys-Leu-Leu-Leu-Lys-Leu-Leu-Lys-NH2 [Peptide 93]
% hemolysis at 100 μM [1]: 0% | Minimal Inhibitory Concentration E. coli (D21) (Escherichia coli D21): 0.1 µM | Minimal Inhibitory Concentration B. megaterium (Bm11) (Bacillus megaterium Bm11): 0.02 µM

Gly-Phe-Phe-Ala-Leu-Ile-Pro-Lys-Ile-Ile-Ser-Ser-Pro-Leu-Phe-Lys-Thr-Leu-Leu-Ser-Ala-Val-(NH--CH2 --CH2 --NH2)2 (GFFALI[dP]KIISSPLFKTLLSAV; not fully specified (C-terminus); printed as Gly-Phe-Phe-Ala-Leu-Ile-Pro-Lys-Ile-Ile-Ser-Ser-Pro-Leu-Phe-Lys-Thr-Leu-Leu-Ser-Ala-Val-(NH—$CH_2$—$CH_2$—$NH_2$)$_2$; also: C-terminus written (NH--CH2--CH2--NH2)2) [Peptide 2]
% hemolysis at 50 μM peptide [1]: 0% | Minimal Inhibitory Concentration A. calcoaceticus (Ac11) [4]: 12.5 µM | Minimal Inhibitory Concentration E. coli (D21) (Escherichia coli D21): 12.5 µM | Minimal Inhibitory Concentration B. megaterium (Bm11) (Bacillus megaterium Bm11): 2.5 µM

KLLLKLLK [Peptide 29]
% hemolysis at 100 μM [1]: 0% | Minimal Inhibitory Concentration E. coli (D21) (Escherichia coli D21): 3 µM | Minimal Inhibitory Concentration B. megaterium (Bm11) (Bacillus megaterium Bm11): 3 µM

KLLLLK [Peptide 28]
% hemolysis at 100 μM [1]: 0% | Minimal Inhibitory Concentration E. coli (D21) (Escherichia coli D21): 200 µM | Minimal Inhibitory Concentration B. megaterium (Bm11) (Bacillus megaterium Bm11): 50 µM

Lys-Gly-Phe-Phe-Ala-Leu-Ile-Pro-Lys-Ile-Ile-Ser-Ser-Pro-Leu-Phe-Lys-Thr-Leu-Leu-Ser-Ala-Val-(NH--CH2 --CH2 --NH2)2 (KGFFALI[dP]KIISSPLFKTLLSAV; not fully specified (C-terminus); printed as Lys-Gly-Phe-Phe-Ala-Leu-Ile-Pro-Lys-Ile-Ile-Ser-Ser-Pro-Leu-Phe-Lys-Thr-Leu-Leu-Ser-Ala-Val-(NH—$CH_2$—$CH_2$—$NH_2$)$_2$; also: D-Pro7 (position 7 is Ile), C-terminus written (NH--CH2--CH2--NH2)2) [Peptide 4]
% hemolysis at 50 μM peptide [1]: 0% | Minimal Inhibitory Concentration A. calcoaceticus (Ac11) [4]: 7.5 µM | Minimal Inhibitory Concentration E. coli (D21) (Escherichia coli D21): 7.5 µM | Minimal Inhibitory Concentration B. megaterium (Bm11) (Bacillus megaterium Bm11): 1.5 µM

Lys-Lys-Gly-Phe-Phe-Ala-Leu-lle-Er-Lys-Ile-Ile-Ser-Ser-Pro-Leu-Phe-Lys-Thr- Leu-Leu-Ser-Ala-Val-(NH--CH2 --CH2 --NH2)2 [Peptide 5]
% hemolysis at 50 μM peptide [1]: 0% | Minimal Inhibitory Concentration A. calcoaceticus (Ac11) [4]: 3.5 µM | Minimal Inhibitory Concentration E. coli (D21) (Escherichia coli D21): 3.5 µM | Minimal Inhibitory Concentration B. megaterium (Bm11) (Bacillus megaterium Bm11): 0.75 µM
